Assay type in all cases: biochemical
The target in one experiment is T1, human FAK (Homo sapiens, UniProt Q05397).
T1 construct: The complete cDNA of human FAK; made in house; host or cells: baculovirus expression system (vector pFastBac HTc)
Nature of the experiment: FAK autophosphorylation inhibition, time resolved fluorescence (HTRF) assay. The following applies: 10 μM (values without asterisk); read-out: FAK % inhib at 10 μM. Put shortly: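 His-tagged full-length human FAK from baculovirus (6.6 µg/ml) self-phosphorylates with 15 µM ATP in HEPES pH 7.2, MgCl2, vanadate, 1 h at 37 °C. HTRF detection (Eu-anti-phosphotyrosine / XL665-anti-His), 665/620 nm ratio; % inhibition vs untreated control, duplicate mean.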

Another experiment concerns the target T2, human KDR enzyme (Homo sapiens, UniProt P35968).
T2 construct: The cytoplasmic domain of the human KDR enzyme; GST; made in house; host or cells: SF21 insect cells (baculovirus)
The experiment is described as follows: KDR substrate (PLCγ) phosphorylation, scintillation assay. The following applies: 10 μM; read-out: KDR % inhib at 10 μM. Put shortly:
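GST-fused human KDR cytoplasmic domain from SF21 cells (about 60% pure, 100 ng) phosphorylated 2 μg of GST-PLCγ SH2-SH3 fragment. The trigger solution held γ33P-ATP with 2 μM cold ATP, in MOPS buffer pH 7.2 with Mg2+, Mn2+, vanadate and NaF. Reactions ran 1 h at 37 °C, were stopped with EDTA and counted by scintillation; results are % inhibition versus the no-compound control.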

The target of another experiment is T3, Aurora2 kinase (Homo sapiens, UniProt O14965).
T3 construct: A complete recombinant Aurora2 enzyme; His tag (N); made in house; host or cells: E. coli
T3 sequence (O14965 1-403): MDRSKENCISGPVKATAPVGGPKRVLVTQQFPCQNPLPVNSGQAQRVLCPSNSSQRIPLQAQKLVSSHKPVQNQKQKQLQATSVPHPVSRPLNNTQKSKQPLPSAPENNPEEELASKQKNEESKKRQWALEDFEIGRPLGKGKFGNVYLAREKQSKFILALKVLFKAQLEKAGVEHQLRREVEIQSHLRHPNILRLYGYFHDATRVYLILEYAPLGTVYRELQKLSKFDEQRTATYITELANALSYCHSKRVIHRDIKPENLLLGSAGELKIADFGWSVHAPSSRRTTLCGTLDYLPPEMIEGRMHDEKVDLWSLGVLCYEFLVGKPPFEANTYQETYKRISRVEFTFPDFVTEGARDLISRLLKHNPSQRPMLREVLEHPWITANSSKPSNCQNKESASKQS
Nature of the experiment: Aurora2 kinase radioactivity scintillation assay using nickel chelate (NuMA substrate). The settings on record: 10 μM; read-out: Aurora2 % inhib at 10 μM. Put shortly:
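His-tagged full-length Aurora2 (0.02 μM, E. coli) phosphorylating His-tagged NuMA C-terminal fragment (0.5 μM) with 1 μM ATP plus [33P]-ATP, 30 min at 37 °C, pH 7.5 Tris buffer with MgCl2. Nickel-chelate scintillation read; percent inhibition versus no-compound control.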

Experiment [1] deals with T4, human IGF1R cytoplasmic domain (Homo sapiens, UniProt P08069).
T4 construct: The human IGF1R cytoplasmic domain was cloned; made in house; host or cells: SF21 insect cells (baculovirus)
T4 sequence (P08069 960-1367 limits assumed): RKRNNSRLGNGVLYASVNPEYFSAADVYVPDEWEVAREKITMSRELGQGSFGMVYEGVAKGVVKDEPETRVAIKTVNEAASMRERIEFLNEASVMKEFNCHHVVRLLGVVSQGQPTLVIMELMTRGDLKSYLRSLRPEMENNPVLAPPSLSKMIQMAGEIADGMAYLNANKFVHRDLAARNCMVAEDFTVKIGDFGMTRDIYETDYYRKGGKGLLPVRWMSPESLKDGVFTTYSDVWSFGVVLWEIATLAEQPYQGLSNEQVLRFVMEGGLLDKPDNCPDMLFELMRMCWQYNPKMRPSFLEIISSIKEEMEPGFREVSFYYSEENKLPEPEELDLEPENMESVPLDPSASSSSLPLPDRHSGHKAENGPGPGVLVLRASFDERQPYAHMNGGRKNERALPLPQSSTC
The experiment is described as follows: IGF1R autophosphorylation inhibition, time resolved fluorescence (HTRF) assay. The settings on record: 10 μM; read-out: IGF1R % inhib at 10 μM. The method, then: The inhibitory activity of the compounds on IGF1R is determined by measuring the inhibition of the autophosphorylation of the enzyme using a time resolved fluorescence (HTRF) assay.
The human IGF1R cytoplasmic domain was cloned, as a fusion with glutathione S-transferase (GST), into the baculovirus expression vector pFastBac-GST. The protein was expressed in SF21 cells and purified to approximately 80% homogeneity.
The kinase activity was determined by incubating the enzyme with various concentrations of test compound in a 50 mM Hepes buffer, pH 7.5, containing 5 mM MnCl2, 50 mM NaCl, 3% glycerol, 0.025% Tween […] of ATP. The enzyme reaction is stopped by adding 100 mM Hepes buffer, pH 7.0, containing 0.4 M KF, 133 mM EDTA and 0.1% BSA containing an anti-GST antibody labeled with XL665 and an antiphosphotyrosine antibody conjugated to europium cryptate (Eu-K). The characteristics of the two fluorophores, XL-665 and Eu-K, are available in G. Mathis et al., Anticancer Research, 1997, 17, pages 3011-3014. The transfer of energy from the excited europium cryptate to the acceptor XL665 is proportional to the degree of autophosphorylation of IGF1R. The long-lived signal specific for XL-665 is measured in a Victor analyzer plate counter (Perkin-elmer). The inhibition of the IGF1R autophosphorylation activity with compounds of the invention is expressed as percentage inhibition compared to a control whose activity is measured in the absence of test compound.

The record followed here is US6858638B2, “Substituted indazoles, compositions containing them, method of production and use” (Aventis Pharma S.A., priority 2002, dated 2005).

T2 sequence (P35968 786-1356 limits assumed): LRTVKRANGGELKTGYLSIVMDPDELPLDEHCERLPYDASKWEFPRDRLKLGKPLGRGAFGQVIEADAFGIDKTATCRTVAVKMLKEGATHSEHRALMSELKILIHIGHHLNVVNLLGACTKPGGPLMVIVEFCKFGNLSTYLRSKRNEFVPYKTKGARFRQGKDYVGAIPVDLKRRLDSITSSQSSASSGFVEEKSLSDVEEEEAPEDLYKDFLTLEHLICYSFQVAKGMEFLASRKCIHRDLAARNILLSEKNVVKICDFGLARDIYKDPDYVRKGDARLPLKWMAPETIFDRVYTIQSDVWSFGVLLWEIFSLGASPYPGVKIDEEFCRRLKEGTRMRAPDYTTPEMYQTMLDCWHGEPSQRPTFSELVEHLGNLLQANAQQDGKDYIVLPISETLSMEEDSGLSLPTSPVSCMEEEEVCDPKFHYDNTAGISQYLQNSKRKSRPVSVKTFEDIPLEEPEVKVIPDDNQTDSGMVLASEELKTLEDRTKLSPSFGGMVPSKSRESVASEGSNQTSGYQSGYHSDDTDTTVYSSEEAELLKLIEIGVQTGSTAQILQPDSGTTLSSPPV
T1 sequence (Q05397 whole entry): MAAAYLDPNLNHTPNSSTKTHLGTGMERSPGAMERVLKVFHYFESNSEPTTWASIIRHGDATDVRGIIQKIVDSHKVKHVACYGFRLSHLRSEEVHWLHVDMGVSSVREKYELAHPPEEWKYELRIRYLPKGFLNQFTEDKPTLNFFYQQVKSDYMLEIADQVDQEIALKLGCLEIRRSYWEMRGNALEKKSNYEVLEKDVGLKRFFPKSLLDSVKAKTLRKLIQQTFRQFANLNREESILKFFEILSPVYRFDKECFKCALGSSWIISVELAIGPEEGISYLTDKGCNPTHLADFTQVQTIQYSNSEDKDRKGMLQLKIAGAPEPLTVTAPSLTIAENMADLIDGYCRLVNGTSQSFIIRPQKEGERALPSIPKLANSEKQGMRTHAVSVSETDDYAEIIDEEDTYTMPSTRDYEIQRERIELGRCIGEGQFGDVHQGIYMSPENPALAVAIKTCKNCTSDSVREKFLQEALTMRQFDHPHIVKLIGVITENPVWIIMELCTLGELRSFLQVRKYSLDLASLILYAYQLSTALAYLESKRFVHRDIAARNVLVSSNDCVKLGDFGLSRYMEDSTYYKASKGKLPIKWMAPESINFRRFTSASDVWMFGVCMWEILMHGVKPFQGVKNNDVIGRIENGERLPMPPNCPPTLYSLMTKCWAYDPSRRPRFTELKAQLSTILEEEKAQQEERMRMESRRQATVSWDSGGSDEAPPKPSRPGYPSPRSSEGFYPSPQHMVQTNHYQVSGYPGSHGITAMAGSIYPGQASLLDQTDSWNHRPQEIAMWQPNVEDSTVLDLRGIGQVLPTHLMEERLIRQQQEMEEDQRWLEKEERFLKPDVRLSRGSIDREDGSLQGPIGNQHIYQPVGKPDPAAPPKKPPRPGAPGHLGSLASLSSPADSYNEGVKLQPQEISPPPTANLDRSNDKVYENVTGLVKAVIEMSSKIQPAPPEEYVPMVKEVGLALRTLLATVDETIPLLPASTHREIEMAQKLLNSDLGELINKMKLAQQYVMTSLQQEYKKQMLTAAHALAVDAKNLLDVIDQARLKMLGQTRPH

With `N#Cc1ccccc1S(=O)(=O)Nc1ccc2[nH]nc(-c3ccccc3)c2c1` [Example 144, 2-Cyano-N-(3-phenyl-1H-indazol-5-yl)-benzenesulfonamide], the inhibition at 10 µM is 70% at human FAK, 72% on human KDR enzyme, 100% on Aurora2 kinase and 69% in experiment [1].

Regarding `CC1(C)[C@H]2CCC1(CS(=O)(=O)Nc1ccc3[nH]nc(-c4ccccc4)c3c1)C(=O)C2` [Example 148, C-(7,7-Dimethyl-2-oxo-bicyclo[2.2.1]hept-1-yl)-N-(3-phenyl-1H-indazol-5-yl)-methanesulfonamide], the inhibition at 10 µM is 36% at human FAK, 61% on human KDR enzyme, 77% on Aurora2 kinase and 30% in experiment [1].

In the case of `O=S(=O)(Nc1ccc2[nH]nc(-c3ccccc3)c2c1)c1cccc2nonc12` [Example 149, N-(3-Phenyl-1H-indazol-5-yl)-benzo[1,2,5]oxadiazole-4-sulfonamide], the inhibition at 10 µM at human FAK was found to be 78%; at human KDR enzyme, 57%; on Aurora2 kinase it was 100%; in experiment [1] it was 67%.

Consider `CS(=O)(=O)c1ccc(S(=O)(=O)Nc2ccc3[nH]nc(-c4ccccc4)c3c2)cc1` [Example 155, 4-Methanesulfonyl-N-(3-phenyl-1H-indazol-5-yl)-benzenesulfonamide], for which the inhibition at 10 µM at human FAK came to 5%; on human KDR enzyme, 61%; on Aurora2 kinase, 61%; in experiment [1], 50%.

For `Nc1cc(Cl)cc(Cl)c1S(=O)(=O)Nc1ccc2[nH]nc(-c3ccccc3)c2c1` [Example 159, 2-Amino-4,6-dichloro-N-(3-phenyl-1H-indazol-5-yl)-benzenesulfonamide], the inhibition at 10 µM at human FAK was 53%; on human KDR enzyme, 86%; at Aurora2 kinase, 77%; in experiment [1], 58%.

As to `CS(=O)(=O)c1ccccc1S(=O)(=O)Nc1ccc2[nH]nc(-c3ccc(Br)cc3)c2c1` [Example 161, N-[3-(4-Bromophenyl)-1H-indazol-5-yl]-2-methanesulfonyl-benzenesulfonamide], the inhibition at 10 µM at human FAK worked out at 61%; on human KDR enzyme, 65%; at Aurora2 kinase, 89%; in experiment [1], 75%.

Take `CS(=O)(=O)c1ccccc1S(=O)(=O)Nc1ccc2[nH]nc(-c3cccc([N+](=O)[O-])c3)c2c1` [Example 162, 2-Methanesulfonyl-N-[3-(3-nitrophenyl)-1H-indazol-5-yl]-benzenesulfonamide]: the inhibition at 10 µM was 97% on human FAK, 57% at human KDR enzyme, 91% at Aurora2 kinase and 82% in experiment [1].

In the case of `CS(=O)(=O)c1ccccc1S(=O)(=O)Nc1ccc2[nH]nc(-c3ccc(Cl)cc3Cl)c2c1` [Example 163, N-[3-(2,4-Dichlorophenyl)-1H-indazol-5-yl]-2-methanesulfonyl-benzenesulfonamide], the inhibition at 10 µM on human FAK stood at 61%; on human KDR enzyme, 61%; on Aurora2 kinase it was 64%; in experiment [1], 23%.

With `Cc1ccc(-c2n[nH]c3ccc(NS(=O)(=O)c4ccccc4S(C)(=O)=O)cc23)cc1` [Example 164, 2-Methanesulfonyl-N-(3-p-tolyl-1H-indazol-5-yl)-benzenesulfonamide], the inhibition at 10 µM at human FAK was 90%; on human KDR enzyme it was 71%; on Aurora2 kinase, 91%; in experiment [1] it was 66%.

With `Cc1cccc(-c2n[nH]c3ccc(NS(=O)(=O)c4ccccc4S(C)(=O)=O)cc23)c1` [Example 165, 2-Methanesulfonyl-N-(3-m-tolyl-1H-indazol-5-yl)-benzenesulfonamide], the inhibition at 10 µM on human FAK was found to be 96%; at human KDR enzyme it was 58%; on Aurora2 kinase, 92%; in experiment [1] it was 71%.

Take `CN(C)c1cccc2c(S(=O)(=O)Nc3cccc(-c4n[nH]c5ccc(NS(=O)(=O)c6ccccc6S(C)(=O)=O)cc45)c3)cccc12` [Example 166, N-{3-[5-(2-Methanesulfonyl-benzenesulfonylamino)-1H-indazol-3-yl]phenyl}-5-dimethylaminonaphthalene-1-sulfonamide]: the inhibition at 10 µM stood at 53% at human FAK, 33% on human KDR enzyme, 61% at Aurora2 kinase and 20% in experiment [1].

As to `CS(=O)(=O)c1ccccc1S(=O)(=O)Nc1ccc2[nH]nc(-c3ccc(F)c(Cl)c3)c2c1` [Example 167, N-[3-(3-Chloro-4-fluoro-phenyl)-1H-indazol-5-yl]-2-methanesulfonyl-benzenesulfonamide], the inhibition at 10 µM at human FAK is 91%; at human KDR enzyme, 44%; at Aurora2 kinase, 90%; in experiment [1], 77%.

With `CS(=O)(=O)c1ccccc1S(=O)(=O)Nc1ccc2[nH]nc(-c3cc(Cl)cc(Cl)c3)c2c1` [Example 168, N-[3-(3,5-Dichlorophenyl)-1H-indazol-5-yl]-2-methanesulfonyl-benzenesulfonamide], the inhibition at 10 µM on human FAK came out at 95%; at human KDR enzyme it was 49%; on Aurora2 kinase, 87%; in experiment [1], 50%.

As for `CS(=O)(=O)c1ccccc1S(=O)(=O)Nc1ccc2[nH]nc(-c3cccc4c3oc3ccccc34)c2c1` [Example 169, N-(3-(Dibenzofuran-4-yl)-1H-indazol-5-yl)-2-methanesulfonyl-benzenesulfonamide], the inhibition at 10 µM on human FAK was determined as 22%; on human KDR enzyme it was 66%; on Aurora2 kinase, 52%; in experiment [1], 13%.

Regarding `CS(=O)(=O)c1ccccc1S(=O)(=O)Nc1ccc2[nH]nc(-c3ccc(-c4ccccc4)cc3)c2c1` [Example 170, N-(3-Biphenyl-4-yl-1H-indazol-5-yl)-2-methanesulfonyl-benzenesulfonamide], the inhibition at 10 µM at human FAK was 62%; on human KDR enzyme, 60%; on Aurora2 kinase, 69%; in experiment [1], 41%.

As for `CS(=O)(=O)c1ccccc1S(=O)(=O)Nc1ccc2[nH]nc(-c3ccc(Oc4ccccc4)cc3)c2c1` [Example 171, 2-Methanesulfonyl-N-[3-(4-phenoxyphenyl)-1H-indazol-5-yl]benzenesulfonamide], the inhibition at 10 µM amounted to 25% at human FAK, 40% on human KDR enzyme, 59% on Aurora2 kinase and 20% in experiment [1].

For `CSc1ccc(-c2n[nH]c3ccc(NS(=O)(=O)c4ccccc4S(C)(=O)=O)cc23)cc1` [Example 172, 2-Methanesulfonyl-N-[3-(4-methylsulfanylphenyl)-1H-indazol-5-yl]-benzenesulfonamide], the inhibition at 10 µM at human FAK turned out to be 92%; on human KDR enzyme, 71%; on Aurora2 kinase, 94%; in experiment [1], 84%.
